Laboratory results published in patent publication US20260070902A1, “SULFONYL DERIVATIVES AS CCR6 INHIBITORS” (Hoffmann-La Roche Inc., priority 2022, published 2026).

Key:
[1] = target: T1, human CCR6 (Homo sapiens, UniProt P51684); assay: Human CCR6-CRE reporter assay; format: cell-based; parameters: The second construct contained the open reading frame of human CCR6 in the pUNO1 backbone; host or cells: 293FT cells; settings: relative -Log IC50; 293FT cells transfected with human CCR6 and CRE-luciferase reporter; 6 μM Forskolin, 6 nM CCL20; 5 h
T1 sequence (P51684 1-374): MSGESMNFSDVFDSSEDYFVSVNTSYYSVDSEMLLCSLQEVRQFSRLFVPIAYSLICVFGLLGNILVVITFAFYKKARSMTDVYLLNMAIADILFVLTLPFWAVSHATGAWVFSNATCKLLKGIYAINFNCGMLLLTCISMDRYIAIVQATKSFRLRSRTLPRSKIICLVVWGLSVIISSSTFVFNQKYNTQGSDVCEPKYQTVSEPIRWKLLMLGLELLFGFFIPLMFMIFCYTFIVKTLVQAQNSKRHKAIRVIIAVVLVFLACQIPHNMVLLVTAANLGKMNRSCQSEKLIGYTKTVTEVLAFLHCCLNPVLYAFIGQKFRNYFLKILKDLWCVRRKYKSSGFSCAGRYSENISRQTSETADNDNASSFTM
In short: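 293FT cells transiently co-transfected with human CCR6 and a CRE-luc2P reporter, used 48 h later. Compounds incubated with cells in medium containing 6 μM Forskolin and 6 nM CCL20 (assay-medium levels), 0.1% DMSO final, 5 h at 37° C; luminescence read, relative −Log IC50 from four-parameter fit.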

[2] = system: Human CD4+ T cells; assay: CD4+ T cells chemotaxis assay towards CCL20; format: cell-based; settings: 3 h; for CD4+ T-cell chemotaxis: relative -Log IC50, human CD4+ T cells stimulated with anti-CD3 and anti-CD28, migration towards 150 ng/ml CCL20; for IC50: Homo sapiens, CD4+ T cell, relative -Log IC50, human CD4+ T cells stimulated with anti-CD3 and anti-CD28, migration towards 150 ng/ml CCL20
Source text: CD4+ T Cells Chemotaxis Assay Towards CCL20
Human CD4+ T cells were isolated from buffy coats of healthy donors using a CD4+ T Cell Isolation Kit (Miltenyi Biotec130-096-533). Isolated T cells were stimulated overnight with anti-CD3 and anti-CD28 antibodies (Biolegend 300314/302934) in growth medium (RPMI1640, 10% heat-inactivated FBS, 1× pen/strep (Gibco 15140)). For the chemotaxis assay, Corning Transwell plates were used with a pore size of 5 m (Corning 3388). T cells were counted and diluted to 6*10^6 cells/ml in chemotaxis medium (RPMI1640, 1% BSA, pen/strep). Compounds were four-fold serially diluted in DMSO. Further dilutions were made in chemotaxis medium. Cells were incubated with test compounds for 30 min at 37° C. prior to initiation of the assay (3*10^6 cells/ml). Final DMSO concentration in the assay was 0.2%. Wells of the Transwell plates were filled with 200 μl chemotaxis medium containing 150 ng/ml CCL20 (R&D systems 360-MP). 50 μl of the cell/compound suspension was added to the inserts of the Transwell plates (150,000 cells/insert). The Transwell plates were placed in an incubator at 37° C., 5% CO2 for 3 h. After 3 h, the number of migrated cells was quantified using CellTiter Glo (Promega). Percentage inhibition values were calculated based on the low and high signal obtained with 0.2% DMSO in chemotaxis medium without and with CCL20, respectively. The relative −Log IC50 was determined with GraphPad Prism 9 using a four-parameter dose-response model.

IC50 [1] | IC50 [2] | Structure (SMILES) | CD4+ T-cell chemotaxis [2]
316 nM |  | N=S(=O)(c1ccc(-c2ccnc(C(N)=O)c2)cc1)[C@H]1CC[C@H](Nc2ccc(S(F)(F)(F)(F)F)cc2)CC1 (single isomer, unassigned; (-)) [Example 131, (−)-4-(4-{[trans-4-{[4-(pentafluoro-λ^6-sulfanyl)phenyl]Amino}cyclohexyl]sulfonimidoyl}phenyl)pyridine-2-carboxamide] | 6.6
158 nM | 10 nM | O=C1NCCC12CCN(c1ccc(S(=O)(=O)N3CCC(Nc4ccc(S(F)(F)(F)(F)F)cc4)CC3)cc1)CC2 [Example 134, 8-{4-[(4-{[4-(pentafluoro-λ^6-sulfanyl)phenyl]amino}piperidin-1-yl)sulfonyl]phenyl}-2,8-diazaspiro[4.5]decan-1-one] | 
200 nM |  | N=S(=O)(c1ccc(-c2ccnc(C(N)=O)c2)cc1)[C@H]1CC[C@H](Nc2ccc(S(F)(F)(F)(F)F)cc2)CC1 (single isomer, unassigned; (+)) [Example 130, (+)-4-(4-{[trans-4-{[4-(pentafluoro-λ^6-sulfanyl)phenyl]Amino}cyclohexyl]sulfonimidoyl}phenyl)pyridine-2-carboxamide] | 7.3
39.8 nM | 3.98 nM | O=C1NC(=O)C2(CCN(c3ccc(S(=O)(=O)N4CCC(Nc5ccc(S(F)(F)(F)(F)F)cc5)CC4)cc3)CC2)N1 [Example 133, 8-{4-[(4-{[4-(pentafluoro-λ^6-sulfanyl)phenyl]amino}piperidin-1-yl)sulfonyl]phenyl}-1,3,8-triazaspiro[4.5]decane-2,4-dione] | 
200 nM | 316 nM | O=S(=O)(c1ccc(-c2ccc3nccn3c2)cc1)N1CCC(Nc2cccc(S(F)(F)(F)(F)F)c2)CC1 [Example 82, 1-(4-{imidazo[1,2-a]pyridin-6-yl}benzenesulfonyl)-N-[3-(pentafluoro-λ^6-sulfanyl)phenyl]piperidin-4-amine] | 
50.1 nM | 15.8 nM | N#Cc1c[nH]c2ccc(-c3ccc(S(=O)(=O)N4CCC(Nc5ccc(S(F)(F)(F)(F)F)cc5)CC4)cc3)cc12 [Example 3, 5-{4-[(4-{[4-(pentafluoro-λ^6-sulfanyl)phenyl]Amino}piperidin-1-yl)sulfonyl]phenyl}-1H-indole-3-carbonitrile] | 
200 nM | 126 nM | O=S(=O)(c1ccc(N2CC3CCC(C2)O3)cc1)N1CCC(Nc2ccc(S(F)(F)(F)(F)F)cc2)CC1 [Example 137, 1-(4-{8-oxa-3-azabicyclo[3.2.1]octan-3-yl}benzenesulfonyl)-N-[4-(pentafluoro-λ^6-sulfanyl)phenyl]piperidin-4-amine] | 
200 nM | 126 nM | N=S(=O)(c1ccc(-c2ccnc(C(N)=O)c2)cc1)N1CCC(Nc2ccc(S(F)(F)(F)(F)F)cc2)CC1 (stereo not drawn) [Example 125, 4-{4-[(4-{[4-(pentafluoro-λ^6-sulfanyl)phenyl]Amino}piperidin-1-yl)sulfonimidoyl]phenyl}pyridine-2-carboxamide] | 
126 nM | 25.1 nM | O=C1NC2(CCN(c3ccc(S(=O)(=O)N4CCC(Nc5ccc(S(F)(F)(F)(F)F)cc5)CC4)cc3)CC2)CO1 [Example 135, 8-{4-[(4-{[4-(pentafluoro-λ^6-sulfanyl)phenyl]amino}piperidin-1-yl)sulfonyl]phenyl}-3-oxa-1,8-diazaspiro[4.5]decan-2-one] | 
126 nM | 158 nM | N#Cc1cnc2ccc(-c3ccc(S(=O)(=O)N4CCC(Nc5cccc(S(F)(F)(F)(F)F)c5)CC4)cc3)cn12 [Example 81, 6-{4-[(4-{[3-(pentafluoro-λ^6-sulfanyl)phenyl]Amino}piperidin-1-yl)sulfonyl]phenyl}imidazo[1,2-a]pyridine-3-carbonitrile] | 
63.1 nM | 5.01 nM | Cc1[nH]nc2ccc(-c3ccc(S(=O)(=O)N4CCC(Nc5ccc(S(F)(F)(F)(F)F)cc5)CC4)cc3)cc12 [Example 2, 1-[4-(3-methyl-2H-indazol-5-yl)benzenesulfonyl]-N-[4-(pentafluoro-λ^6-sulfanyl)phenyl]piperidin-4-amine] | 
126 nM | 31.6 nM | N=S(=O)(c1ccc(-c2ccnc(C(N)=O)c2)cc1)[C@H]1CC[C@H](Nc2ccc(S(F)(F)(F)(F)F)cc2)CC1 (stereo partly drawn) [Example 91, 4-(4-{[trans-4-{[4-(pentafluoro-λ^6-sulfanyl)phenyl]Amino}cyclohexyl]sulfonimidoyl}phenyl)pyridine-2-carboxamide] | 
39.8 nM | 5.01 nM | N#Cc1cnc2ccc(-c3ccc(S(=O)(=O)N4CCC(Nc5ccc(S(F)(F)(F)(F)F)cc5)CC4)cc3)cn12 [Example 25, 6-{4-[(4-{[4-(pentafluoro-λ^6-sulfanyl)phenyl]Amino}piperidin-1-yl)sulfonyl]phenyl}imidazo[1,2-a]pyridine-3-carbonitrile] | 
126 nM |  | CC(C)c1nnc2ccc(-c3ccc(S(=N)(=O)[C@H]4CC[C@H](Nc5ccc(S(F)(F)(F)(F)F)cc5)CC4)cc3)cn12 (single isomer, unassigned; (-)) [Example 164, (−)-{4-[3-(propan-2-yl)-[1,2,4]triazolo[4,3-a]pyridin-6-yl]phenyl}[trans-4-{[4-(pentafluoro-λ^6-sulfanyl)phenyl]amino}cyclohexyl](imino)-λ^6-sulfanone] | 6.7
79.4 nM | 20 nM | COC1CC2(CCN(c3ccc(S(=O)(=O)N4CCC(Nc5ccc(S(F)(F)(F)(F)F)cc5)CC4)cc3)CC2)C1 [Example 132, 1-(4-{2-methoxy-7-azaspiro[3.5]nonan-7-yl}benzenesulfonyl)-N-[4-(pentafluoro-λ^6-sulfanyl)phenyl]piperidin-4-amine] | 
39.8 nM | 0.501 nM | N#Cc1c[nH]c2ccc(-c3ccc(S(=O)(=O)[C@H]4CC[C@H](Nc5ccc(S(F)(F)(F)(F)F)cc5)CC4)cc3)cc12 [Example 7, 5-(4-{[trans-4-{[4-(pentafluoro-λ^6-sulfanyl)phenyl]Amino}cyclohexyl]sulfonyl}phenyl)-1H-indole-3-carbonitrile] | 
63.1 nM | 15.8 nM | O=S(=O)(c1ccc(-c2ccc(O)nc2)cc1)[C@H]1CC[C@H](Nc2ccc(S(F)(F)(F)(F)F)cc2)CC1 [Example 56, 5-(4-{[trans-4-{[4-(pentafluoro-λ^6-sulfanyl)phenyl]Amino}cyclohexyl]sulfonyl}phenyl)pyridin-2-ol] | 
50.1 nM | 0.794 nM | N#Cc1n[nH]c2ccc(-c3ccc(S(=O)(=O)N4CCC(Nc5ccc(S(F)(F)(F)(F)F)cc5)CC4)cc3)cc12 [Example 4, 5-{4-[(4-{[4-(pentafluoro-λ^6-sulfanyl)phenyl]Amino}piperidin-1-yl)sulfonyl]phenyl}-1H-indazole-3-carbonitrile] | 
251 nM | 100 nM | O=S(=O)(c1ccc(-c2ccc3nnc(C4CNC4)n3c2)cc1)[C@H]1CC[C@H](Nc2ccc(S(F)(F)(F)(F)F)cc2)CC1 [Example 168, 4-(pentafluoro-λ^6-sulfanyl)-N-[trans-4-{4-[3-(azetidin-3-yl)-[1,2,4]triazolo[4,3-a]pyridin-6-yl]benzenesulfonyl}cyclohexyl]aniline] | 
39.8 nM | 0.631 nM | N#Cc1n[nH]c2ccc(-c3ccc(S(=O)(=O)[C@H]4CC[C@H](Nc5ccc(S(F)(F)(F)(F)F)cc5)CC4)cc3)cc12 [Example 38, 5-(4-{[trans-4-{[4-(pentafluoro-λ^6-sulfanyl)phenyl]Amino}cyclohexyl]sulfonyl}phenyl)-1H-indazole-3-carbonitrile] | 
79.4 nM | 10 nM | O=C1NCc2ccc(-c3ccc(S(=O)(=O)[C@H]4CC[C@H](Nc5ccc(S(F)(F)(F)(F)F)cc5)CC4)cc3)cc21 [Example 9, 6-(4-{[trans-4-{[4-(pentafluoro-λ^6-sulfanyl)phenyl]Amino}cyclohexyl]sulfonyl}phenyl)-2,3-dihydro-1H-isoindol-1-one] | 
